Read-outs that look alike come from different tables or passages of the source.
How the values were obtained:
Leukemia L1210 [1] = assay: Activity against Leukemia L1210, intraperitoneal, increase in life span of mice; format: in vivo, female mice (BDF1 family); settings: for ED (maximum ILS) / ED30: Mus musculus, L1210, ip, ip once a day for 5 successive days; for ED (maximum ILS): daily dosage giving maximum increase of life span, read-out: O.D. (optimum dosage); for ED30: daily dosage increasing average survival days by 30%, read-out: ILS30; for Survivors after 60 days / Max. ILS % / Therapeutic ratio TR: ip; for Survivors after 60 days: 6-membered group; for Max. ILS %: 60-day observation, versus control; for Therapeutic ratio TR: O.D./ILS30
In short: (§1)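 Beginning 24 hours after intraperitoneal implantation of 1×10^5 leukemia cells, six-mouse groups of female BDF1 mice receive the test compound once daily for five consecutive days by the ip or oral route. Survival is recorded up to 60 days and compared with untreated controls.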

Leukemia L1210 [2] = assay: Activity against Leukemia L1210, oral, increase in life span of mice; format: in vivo, female mice (BDF1 family); settings: for ED (maximum ILS) / ED30: Mus musculus, L1210, oral once a day for 5 successive days; for ED (maximum ILS): daily dosage giving maximum increase of life span, read-out: O.D. (optimum dosage); for ED30: daily dosage increasing average survival days by 30%, read-out: ILS30; for Survivors after 60 days / Max. ILS % / Therapeutic ratio TR: oral; for Survivors after 60 days: 6-membered group; for Max. ILS %: 60-day observation, versus control; for Therapeutic ratio TR: O.D./ILS30
In short: as §1

[3] = Acute toxicity (LD50, Behrens-Karber method); format: in vivo, ICR mice; settings: mouse, in vivo, ip, mortality during 30 days
Method: Test compounds, dissolved or suspended in 0.5% aqueous CMC, were each intraperitoneally administered to ICR mice in a dose of 0.1 ml per 10 g body weight. LD50 (mg/kg) value of each test compound was calculated from the mortality of mice during 30 days by the Behrens-Karber method.

Ehrlich acites carcinoma = assay: Growth-inhibiting effect against Ehrlich acites carcinoma; format: in vivo, male mice; settings: Mus musculus, Ehrlich, 120 h, 5 days; for response vs control in vivo at 25 mg/kg: 25 mg/kg/day ip; for response vs control in vivo at 100 mg/kg: 100 mg/kg/day ip
In short: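 Male mice (groups of 6) implanted intraperitoneally with 1×10^7 Ehrlich ascites cells; compounds in 1% Nikkol HCO-60 given i.p. once daily for 5 days starting 24 hrs post-implantation. Total packed cell volume measured at day 7; T/C% vs untreated group, scored - (100-66), + (65-41), ++ (40-11), +++ (10-0).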

Row | SMILES | ED (maximum ILS) (Leukemia L1210 [1]) [mg/kg] | ED30 (Leukemia L1210 [1]) [mg/kg] | Survivors after 60 days (Leukemia L1210 [1]) | Max. ILS % (Leukemia L1210 [1]) [%] | Therapeutic ratio TR (Leukemia L1210 [1]) | ED (maximum ILS) (Leukemia L1210 [2]) [mg/kg] | ED30 (Leukemia L1210 [2]) [mg/kg] | Survivors after 60 days (Leukemia L1210 [2]) | Max. ILS % (Leukemia L1210 [2]) [%] | Therapeutic ratio TR (Leukemia L1210 [2]) | LD50 at 720 h [3] [mg/kg] | response vs control in vivo at 25 mg/kg (Ehrlich acites carcinoma; read-out: Activity) [%] | response vs control in vivo at 25 mg/kg (Ehrlich acites carcinoma; read-out: T/C %) [%] | response vs control in vivo at 100 mg/kg (Ehrlich acites carcinoma; read-out: Activity) [%] | response vs control in vivo at 100 mg/kg (Ehrlich acites carcinoma; read-out: T/C %) [%]
1 | COCCN(C[C@H]1O[C@H](OC2CCCCC2)[C@H](O)[C@@H](O)[C@H]1O)C(=O)N(CCCl)N=O [Compound 101, 3-(2-methoxyethyl)-3-(cyclohexyl α-D-galactopyranose-6-yl)-1-(2-chloroethyl)-1-nitrosourea] | 200 | 3.66 | 6/6 | > 700 | 54.6 | 250 | 11.2 | 4/6 | > 460 | 22.3 | 660 | 0 to 10 | 0 | 0 to 10 | 0
2 | CCOCCO[C@H]1O[C@H](CN(CC(C)C)C(=O)N(CCCl)N=O)[C@H](O)[C@H](O)[C@H]1O [Compound 114, 3-isobutyl-3-(2-ethoxyethyl α-D-galactopyranose-6-yl)-1-(2-chloroethyl)-1-nitrosourea] | 180 | 2.86 | 6/6 | > 700 | 62.9 | 210 | 9.05 | 6/6 | > 700 | 23.2 | 580 | 0 to 10 | 0 | 0 to 10 | 0
3 | CCCCO[C@H]1O[C@H](CO)[C@H](N(C(=O)N(CCCl)N=O)C(C)COC)[C@H](O)[C@H]1O (stereo partly drawn) [Compound 132, 3-(1-methyl-2-methoxyethyl)-3-(n-butyl α-D-galactopyranose-4-yl)-1-(2-chloroethyl)-1-nitrosourea] | 160 | 3.86 | 4/6 | > 420 | 41.5 | 200 | 14 | 3/6 | > 345 | 14.3 | 550 | 0 to 10 | 0 | 0 to 10 | 0
4 | CC(C)CN(C[C@H]1O[C@H](OCC2CCCO2)[C@@H](O)[C@@H](O)[C@@H]1O)C(=O)N(CCCl)N=O (stereo partly drawn) [Compound 136, 3-(isobuty)-3-(tetrahydrofurfuryl α-D-mannopyranose-6-yl)-1-(2-chloroethyl)-1-nitrosourea] | 200 | 2.94 | 6/6 | > 700 | 68.0 | 240 | 10.1 | 5/6 | > 625 | 23.8 | 600 | 0 to 10 | 0 | 0 to 10 | 0
5 | CC(C)CO[C@H]1O[C@H](CN(CC2CCCO2)C(=O)N(CCCl)N=O)[C@@H](O)[C@@H](O)[C@@H]1O (stereo partly drawn) [Compound 140, 3-tetrahydrofurfuryl-3-(isobutyl α-D-altropyranose-6-yl)-1-(2-chloroethyl)-1-nitrosourea] | 180 | 2.8 | 6/6 | > 700 | 64.3 | 220 | 9.69 | 5/6 | > 620 | 22.7 | 540 | 0 to 10 | 0 | 0 to 10 | 0
6 | CCOCCN(C(=O)N(CCCl)N=O)[C@@H]1[C@@H](O)[C@@H](OC2CCCCC2)OC[C@H]1O [Compound 149, 3-(2-ethoxyethyl)-3-(cyclohexyl α-D-xylopyranose-3-yl)-1-(2-chloroethyl)-1-nitrosourea] | 170 | 2.9 | 6/6 | > 700 | 58.6 | 210 | 12.8 | 4/6 | > 440 | 16.4 | 540 | 0 to 10 | 0 | 0 to 10 | 0

Reference: patent US4593090A, “Novel nitrosourea compounds, method for preparing same, and pharmaceutical composition containing same” (Gogo Kimura, priority 1981, dated 1986)
